Results from article PMC8151276, “An Integrated Approach toward NanoBRET Tracers for Analysis of GPCR Ligand Engagement” (Molecules, 2021).

Columns and labels:
Assay type in all cases: binding
[1] = target: T1, P2RY4 (Homo sapiens, UniProt P51582); experiment: NanoBRET screen HiBiT-P2RY4 in HEK293
T1 construct: purchased Promega (in-house HiBiT-GPCR construct library, NanoBRET)
Procedure: (§1) Each tracer candidate was screened across the entire library of HiBiT-GPCR constructs using NanoBRET as the detection modality. As depicted in Figure 4A, the specificity of interactions was evaluated through decrease in BRET due to competitive displacement of a bound tracer by excess parental compound. Each tracer was analyzed for binding to each HiBiT-GPCR fusion in the absence and in the presence of competing parental compound. Briefly, HEK293 cells were transfected with HiBiT-GPCR constructs diluted into promoterless DNA to reduce expression and maximize translocation to the cell surface. Each tracer candidate was then screened at concentrations of 1 μM and 0.1 μM across cells expressing these fusions. Cells were treated for 1.5 h with tracer either alone or in the presence of 20 μM competing parental compound (i.e., control). BRET was measured upon addition of purified LgBiT and subsequent complementation with HiBiT genetically fused to a GPCR. The specificity of interactions was assessed through a decrease in BRET signal due to competitive displacement of the bound tracer. To further gauge the robustness of these interactions, the fold response over the control (i.e., BRETtracer/BRETcontrol) was calculated. We chose a 1.5-fold response, which translates to ≥7-fold signal over noise as the minimal threshold required to score an interaction as positive. […]. Below we highlight the screening results obtained for our exemplary fluorescent tracers based on Clozapine, Amitriptyline and AZD1283.
(§2) HiBiT-GPCR DNA constructs were diluted in 10 mM Tris pH 8 to a final concentration of 0.01 μg/μL, arrayed in 96-well plates and stored at −20 °C. For transfection, HEK293 cells were suspended in Opti-MEM (without phenol red) supplemented with 2% fetal bovine serum (Seradigm) and 100 units/mL penicillin–streptomycin (Gibco) at a final concentration of 220,000 cells/mL and dispensed into white 96-well plates at 90 μL/well. Subsequent transfections and screens were carried using an Agilent Bravo Automated Liquid Handling Platform. First, the 96-well HiBiT DNA arrays were diluted 25-fold in Opti-MEM (without serum or phenol red) to a final concentration of 0.0004 μg/μL and 20 μL of the diluted DNAs were transferred into new 96-well plates. Next, promoterless carrier DNA (1 μg/μL) was diluted 25-fold (0.04 μg/μL) and then dispensed into the diluted arrays at 20 μL/well. Following brief mixing, Viafect transfection reagent (Promega) diluted 16-fold into Opti-MEM was dispensed into the plates at 40 μL/well. After mixing by pipetting, plates were incubated for 10 min on the pipetting station deck. The DNA-transfection reagent complexes were then added to plates containing cells. To facilitate the screen, 10 μL of DNA-transfection reagent complexes were added in duplicates to the top 4 and bottom 4 rows, resulting in two identical 48-well arrays per plate. Plates with transfected cells were incubated for 18–20 h at 37 °C/5% CO2. A screen of each tracer across the entire library using two different concentrations requires duplicate plates of transfected cells. Depending on the number of tracers being screened, transfections can be scaled up using the same ratios. The next day, for each tracer, four 20× screening solutions in tracer dilution buffer (Promega) were prepared: two duplicates at final concentration of 20 μM and two duplicates at a final concentration of 2 μM. A competing unmodified compound was added to one of each duplicate at a final concentration of 400 μM. The four resulting solutions were diluted 4-fold in Opti-MEM without serum or phenol red to generate 5× solutions (5 µM and 0.5 µM tracer +/− 100 μM competing compound). To screen the library, a BioTek MultiFlo FX liquid dispenser was used to dispense 22.5 µL of tracer solution to the top 4 rows and 22.5 µL tracer + competing compound solution to the 4 bottom rows. Plates were briefly mixed on an orbital shaker and incubated for 1.5 h at room temperature. […]

[2] = target: T2, CXCR1 (Homo sapiens, UniProt P25024); experiment: NanoBRET screen HiBiT-CXCR1 in HEK293
T2 construct: purchased Promega (in-house HiBiT-GPCR construct library, NanoBRET)
T2 sequence (P25024 1-350): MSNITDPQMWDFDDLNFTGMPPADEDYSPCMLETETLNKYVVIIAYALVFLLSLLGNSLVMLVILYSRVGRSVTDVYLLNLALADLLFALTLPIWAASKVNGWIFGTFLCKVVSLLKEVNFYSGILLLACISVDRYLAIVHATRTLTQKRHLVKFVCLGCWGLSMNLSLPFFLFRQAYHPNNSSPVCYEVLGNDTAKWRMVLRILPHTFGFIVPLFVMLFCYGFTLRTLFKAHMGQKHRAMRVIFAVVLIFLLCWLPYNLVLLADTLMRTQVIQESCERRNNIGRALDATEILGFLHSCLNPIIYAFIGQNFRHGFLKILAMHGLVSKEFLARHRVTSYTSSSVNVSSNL
Procedure: as §1, §2

[3] = target: T3, LTB4R (Homo sapiens, UniProt Q15722); experiment: NanoBRET screen HiBiT-LTB4R in HEK293
T3 construct: purchased Promega (in-house HiBiT-GPCR construct library, NanoBRET)
Procedure: as §1, §2

[4] = target: T4, GALR3 (Homo sapiens, UniProt O60755); experiment: NanoBRET screen HiBiT-GALR3 in HEK293
T4 construct: purchased Promega (in-house HiBiT-GPCR construct library, NanoBRET)
T4 sequence (O60755 1-368): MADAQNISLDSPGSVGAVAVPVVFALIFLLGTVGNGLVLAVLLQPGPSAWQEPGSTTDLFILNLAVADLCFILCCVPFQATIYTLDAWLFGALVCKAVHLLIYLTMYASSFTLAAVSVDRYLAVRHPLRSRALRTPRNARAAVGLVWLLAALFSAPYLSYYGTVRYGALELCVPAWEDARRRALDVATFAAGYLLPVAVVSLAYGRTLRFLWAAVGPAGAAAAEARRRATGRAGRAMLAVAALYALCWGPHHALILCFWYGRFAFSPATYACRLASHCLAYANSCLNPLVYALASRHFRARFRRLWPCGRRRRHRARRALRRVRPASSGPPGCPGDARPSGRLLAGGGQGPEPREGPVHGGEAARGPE
Procedure: as §1, §2

[5] = target: T5, SSTR1 (Homo sapiens, UniProt P30872); experiment: NanoBRET screen HiBiT-SSTR1 in HEK293
T5 construct: purchased Promega (in-house HiBiT-GPCR construct library, NanoBRET)
Procedure: as §1, §2

[6] = target: T6, AGTR2 (Homo sapiens, UniProt P50052); experiment: NanoBRET screen HiBiT-AGTR2 in HEK293
T6 construct: purchased Promega (in-house HiBiT-GPCR construct library, NanoBRET)
T6 sequence (P50052 1-363): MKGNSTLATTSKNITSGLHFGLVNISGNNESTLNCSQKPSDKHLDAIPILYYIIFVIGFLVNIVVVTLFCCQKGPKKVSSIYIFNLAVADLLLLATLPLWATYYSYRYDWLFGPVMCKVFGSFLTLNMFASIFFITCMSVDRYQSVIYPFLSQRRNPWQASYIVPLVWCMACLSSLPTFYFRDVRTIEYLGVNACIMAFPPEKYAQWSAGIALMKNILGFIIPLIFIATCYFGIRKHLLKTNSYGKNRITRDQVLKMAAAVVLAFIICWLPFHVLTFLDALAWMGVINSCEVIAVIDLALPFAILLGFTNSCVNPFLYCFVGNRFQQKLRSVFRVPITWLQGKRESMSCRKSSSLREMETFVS
Procedure: as §1, §2

[7] = tracer at 0.1μM, listed as amitriptyline-b-2-NB590
[8] = tracer at 1μM, listed as amitriptyline-b-2-NB590

T1 sequence (P51582 whole entry): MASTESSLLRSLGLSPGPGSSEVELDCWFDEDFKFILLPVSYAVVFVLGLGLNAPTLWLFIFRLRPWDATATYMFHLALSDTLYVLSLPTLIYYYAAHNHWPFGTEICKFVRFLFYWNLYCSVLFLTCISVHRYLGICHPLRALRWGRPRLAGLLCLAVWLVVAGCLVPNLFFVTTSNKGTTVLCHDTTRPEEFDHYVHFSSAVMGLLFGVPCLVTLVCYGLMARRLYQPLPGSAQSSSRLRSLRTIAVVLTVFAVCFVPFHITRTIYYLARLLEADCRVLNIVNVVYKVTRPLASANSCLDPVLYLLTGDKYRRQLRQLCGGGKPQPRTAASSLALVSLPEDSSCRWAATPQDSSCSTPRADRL
T3 sequence (Q15722 whole entry): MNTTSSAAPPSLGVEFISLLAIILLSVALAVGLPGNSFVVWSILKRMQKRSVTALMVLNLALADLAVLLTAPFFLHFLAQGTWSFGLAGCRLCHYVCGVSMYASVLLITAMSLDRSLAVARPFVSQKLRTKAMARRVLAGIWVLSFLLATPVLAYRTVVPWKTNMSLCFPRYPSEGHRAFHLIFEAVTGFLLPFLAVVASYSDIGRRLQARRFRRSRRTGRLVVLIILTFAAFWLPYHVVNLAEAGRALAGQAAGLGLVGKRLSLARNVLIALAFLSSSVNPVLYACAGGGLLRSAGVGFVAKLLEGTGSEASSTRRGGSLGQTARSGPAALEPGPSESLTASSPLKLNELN
T5 sequence (P30872 whole entry): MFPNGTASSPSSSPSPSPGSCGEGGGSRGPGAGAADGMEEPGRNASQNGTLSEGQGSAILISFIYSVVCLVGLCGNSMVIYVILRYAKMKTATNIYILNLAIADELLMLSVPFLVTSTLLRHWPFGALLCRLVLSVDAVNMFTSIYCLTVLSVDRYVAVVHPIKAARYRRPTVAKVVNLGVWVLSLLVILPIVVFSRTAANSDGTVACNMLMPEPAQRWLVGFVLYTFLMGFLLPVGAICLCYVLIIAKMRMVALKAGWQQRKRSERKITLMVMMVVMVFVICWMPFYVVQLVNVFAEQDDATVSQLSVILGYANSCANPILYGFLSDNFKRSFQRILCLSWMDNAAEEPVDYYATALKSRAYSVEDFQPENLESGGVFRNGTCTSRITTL

Compound	NanoBRET Fold Response ([1]; P2RY4, tracer 0.1μM)	NanoBRET Fold Response ([1]; P2RY4, tracer 1μM)	NanoBRET Fold Response ([2]; CXCR1, tracer 0.1μM)	NanoBRET Fold Response ([2]; CXCR1, tracer 1μM)	NanoBRET Fold Response ([3]; LTB4R, tracer 0.1μM)	NanoBRET Fold Response ([3]; LTB4R, tracer 1μM)	NanoBRET Fold Response ([4]; GALR3, tracer 0.1μM)	NanoBRET Fold Response ([4]; GALR3, tracer 1μM)	NanoBRET Fold Response ([5]; SSTR1, tracer 0.1μM)	NanoBRET Fold Response ([5]; SSTR1, tracer 1μM)	NanoBRET Fold Response ([6]; AGTR2, tracer 0.1μM)	NanoBRET Fold Response ([6]; AGTR2, tracer 1μM)	further results
O=C(CCOCCOCCOCCOCCNC(=O)CCc1ccc2n1[B-](F)(F)[N+]1=C(c3ccc[nH]3)C=CC1=C2)NCCCN1CCN(C2=Nc3ccccc3Oc3ccc(Cl)cc32)CC1 [Loxapine-a-2-NB590]	0.95	1.28	1.02	0.94	1.05	0.96	0.95	1.10	1.06	1.30	1.00	1.01	
COc1ccccc1N1CCN(CCCCN2C(=O)c3ccc(CNC(=O)CCOCCOCCOCCOCCNC(=O)CCc4ccc5n4[B-](F)(F)[N+]4=C(c6ccc[nH]6)C=CC4=C5)cc3C2=O)CC1 [NAN-190-2-NB590]		1.18	0.97	1.05		0.96	0.97	1.10	0.94	1.08	1.02	0.98	
CC(C)N(CC[C@H](c1ccccc1)c1cc(CCNC(=O)CCOCCOCCOCCOCCNC(=O)CCc2ccc3n2[B-](F)(F)[N+]2=C(c4ccc[nH]4)C=CC2=C3)ccc1O)C(C)C [Tolterodine-2-NB590]	1.08	0.94	1.27	1.06	0.92	0.96	0.76	0.78	1.11	1.21	1.10	1.07	
N#CN=C(NCCCOc1cccc(CN2CCCCC2)c1)NCCNC(=O)CCOCCOCCOCCOCCNC(=O)CCc1ccc2n1[B-](F)(F)[N+]1=C(c3ccc[nH]3)C=CC1=C2 [Aminopotentidine-2-NB590]	1.09	1.07	1.03	0.99	1.03	0.99	1.09	1.01	1.02	0.98	0.98	1.04	
CCOC(=O)c1cc(C#N)c(N2CCC(C(=O)NS(=O)(=O)Cc3ccccc3/C=C/C(=O)NCCNC(=O)CCc3ccc4n3[B-](F)(F)[N+]3=C(c5ccc[nH]5)C=CC3=C4)CC2)nc1C [AZD1283-1-NB590]													NanoBRET Fold Response ([1]; P2RY4, 0.1μM): 1.05; NanoBRET Fold Response ([1]; P2RY4, 1μM): 1.12; NanoBRET Fold Response ([2]; CXCR1, 0.1μM): 1.09; NanoBRET Fold Response ([2]; CXCR1, 1μM): 1.13; NanoBRET Fold Response ([3]; LTB4R, 0.1μM): 1.16; NanoBRET Fold Response ([3]; LTB4R, 1μM): 1.16; NanoBRET Fold Response ([4]; GALR3, 0.1μM): 0.91; NanoBRET Fold Response ([4]; GALR3, 1μM): 1.00; NanoBRET Fold Response ([5]; SSTR1, 0.1μM): 1.08; NanoBRET Fold Response ([5]; SSTR1, 1μM): 1.10; NanoBRET Fold Response ([6]; AGTR2, 0.1μM): 1.13; NanoBRET Fold Response ([6]; AGTR2, 1μM): 1.17
CN(C)CCC=C1c2ccccc2CCc2ccc(C(=O)NCCNC(=O)CCOCCOCCOCCOCCNC(=O)CCc3ccc4n3[B-](F)(F)[N+]3=C(c5ccc[nH]5)C=CC3=C4)cc21 [Amitriptyline-b-2-NB590]													NanoBRET Fold Response [1, 7]: 1.07; NanoBRET Fold Response ([2]; tracer at 0.1μM): 0.97; NanoBRET Fold Response [2, 8]: 1.11; NanoBRET Fold Response [3, 8]: 1.02; NanoBRET Fold Response [4, 7]: 1.46; NanoBRET Fold Response [4, 8]: 0.95; NanoBRET Fold Response [5, 8]: 1.07; NanoBRET Fold Response ([6]; tracer at 0.1μM): 0.84; NanoBRET Fold Response [6, 8]: 0.87
CN(C)CCC=C1c2ccccc2CCc2ccc(C(=O)NCCNC(=O)CCOCCOCCOCCOCCNC(=O)CCc3ccc4n3[B-](F)(F)[N+]3=C(c5ccc[nH]5)C=CC3=C4)cc21 [Amitriptyline-a-2-NB590]													NanoBRET Fold Response ([1]; tracer at 0.1μM): 1.01; NanoBRET Fold Response ([1]; tracer at 1μM): 1.02; NanoBRET Fold Response ([2]; tracer at 0.1μM): 1.05; NanoBRET Fold Response ([2]; tracer at 1μM): 0.97; NanoBRET Fold Response ([3]; tracer at 0.1μM): 1.02; NanoBRET Fold Response ([3]; tracer at 1μM): 1.00; NanoBRET Fold Response ([4]; tracer at 0.1μM): 0.98; NanoBRET Fold Response ([4]; tracer at 1μM): 1.04; NanoBRET Fold Response ([5]; tracer at 0.1μM): 1.30; NanoBRET Fold Response ([5]; tracer at 1μM): 1.28; NanoBRET Fold Response ([6]; tracer at 0.1μM): 1.01; NanoBRET Fold Response ([6]; tracer at 1μM): 0.98
O=C(CCc1ccc2n1[B-](F)(F)[N+]1=C(c3ccc[nH]3)C=CC1=C2)NCCOCCOCCNC(=O)OCCOCCN1CCN(C2=Nc3ccccc3Sc3ccccc32)CC1 [Quetiapine-a-2-NB590]	1.05	0.84	0.98	0.95	1.27	1.40	1.02	0.73	0.92	0.92	1.08	1.05	
